What was measured:
Experiment in all cases: relative viability (nuclei count vs DMSO), 5 days (fraction); higher = more cells survive
GW-2580 + Navitoclax = compound: COC1=CC=C(C=C1)COC2=C(C=C(C=C2)CC3=CN=C(N=C3N)N)OC [GW-2580] + CC1(C)CCC(c2ccc(Cl)cc2)=C(CN2CCN(c3ccc(C(=O)NS(=O)(=O)c4ccc(N[C@H](CCN5CCOCC5)CSc5ccccc5)c(S(=O)(=O)C(F)(F)F)c4)cc3)CC2)C1 [Navitoclax] (partner 0.5 µM)
Outline: (§1)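 Relative viability is defined as nuclei in treated wells over nuclei in vehicle wells. Duplicate plates were run and medians reported. Lung cancer cell lines in 1536-well plates were dosed by pin tool one day after seeding, with one drug or with a fixed anchor-drug dose plus five library-drug doses (not always all listed) in √10 steps, and nuclei were counted after 5 days.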

GW-2580 + Dasatinib = compound: COC1=CC=C(C=C1)COC2=C(C=C(C=C2)CC3=CN=C(N=C3N)N)OC [GW-2580] + Cc1nc(Nc2ncc(C(=O)Nc3c(C)cccc3Cl)s2)cc(N2CCN(CCO)CC2)n1 [Dasatinib] (partner 0.075 µM)
Outline: as §1

Fedratinib + Tozasertib = compound: Cc1cnc(Nc2ccc(OCCN3CCCC3)cc2)nc1Nc1cccc(S(=O)(=O)NC(C)(C)C)c1 [Fedratinib] + Cc1cc(Nc2cc(N3CCN(C)CC3)nc(Sc3ccc(NC(=O)C4CC4)cc3)n2)n[nH]1 [Tozasertib] (partner 0.1 µM)
Outline: as §1

Fedratinib + Phenformin = compound: Cc1cnc(Nc2ccc(OCCN3CCCC3)cc2)nc1Nc1cccc(S(=O)(=O)NC(C)(C)C)c1 [Fedratinib] + N=C(N)NC(=N)NCCc1ccccc1 [Phenformin] (partner 250 µM)
Outline: as §1

Fedratinib + Pemetrexed = compound: Cc1cnc(Nc2ccc(OCCN3CCCC3)cc2)nc1Nc1cccc(S(=O)(=O)NC(C)(C)C)c1 [Fedratinib] + Nc1nc2[nH]cc(CCc3ccc(C(=O)N[C@@H](CCC(=O)O)C(=O)O)cc3)c2c(=O)[nH]1 [Pemetrexed] (partner 0.2 µM)
Outline: as §1

Row | Cell Line | relative viability (GW-2580 + Navitoclax; first compound 0.08 µM) | relative viability (GW-2580 + Navitoclax; first compound 0.8 µM) | relative viability (GW-2580 + Navitoclax; first compound 2.53 µM) | relative viability (GW-2580 + Navitoclax; first compound 8 µM) | relative viability (GW-2580 + Dasatinib; first compound 0.08 µM) | relative viability (GW-2580 + Dasatinib; first compound 0.8 µM) | relative viability (GW-2580 + Dasatinib; first compound 2.53 µM) | relative viability (GW-2580 + Dasatinib; first compound 8 µM) | relative viability (Fedratinib + Tozasertib; first compound 0.1 µM) | relative viability (Fedratinib + Tozasertib; first compound 0.3162 µM) | relative viability (Fedratinib + Tozasertib; first compound 1 µM) | relative viability (Fedratinib + Phenformin; first compound 0.1 µM) | relative viability (Fedratinib + Phenformin; first compound 0.3162 µM) | relative viability (Fedratinib + Phenformin; first compound 1 µM) | relative viability (Fedratinib + Pemetrexed; first compound 0.1 µM) | relative viability (Fedratinib + Pemetrexed; first compound 0.3162 µM) | relative viability (Fedratinib + Pemetrexed; first compound 1 µM)
1 | LOU-NH91 | 0.683 | 0.731 | 0.618 | 0.752 | 0.555 | 0.719 | 0.517 | 0.553 | 0.388 | 0.73 | 0.64 | 0.689 | 0.899 | 0.733 | 0.43 | 0.351 | 0.399
2 | LU99A | 0.887 | 0.97 | 0.681 | 0.729 | 0.609 | 0.651 | 0.472 | 0.465 | 0.209 | 0.291 | 0.276 | 0.864 | 0.894 | 0.755 | 0.181 | 0.174 | 0.197
3 | LXF-289 | 1.02 | 0.963 | 0.948 | 0.821 | 0.208 | 0.267 | 0.177 | 0.217 | 0.149 | 0.185 | 0.151 | 0.503 | 0.488 | 0.517 | 0.89 | 0.872 | 0.884
4 | NCI-H23 | 0.77 | 0.75 | 0.774 | 0.87 | 0.847 | 0.921 | 0.757 | 0.792 | 0.528 | 0.364 | 0.303 | 0.772 | 0.81 | 0.716 | 0.681 | 0.59 | 0.497
5 | NCI-H322M | 1.07 | 1.31 | 1.11 | 1.22 | 0.247 | 0.24 | 0.263 | 0.253 | 0.52 | 0.447 | 0.333 | 0.722 | 0.774 | 0.436 | 0.61 | 0.651 | 0.538
6 | NCI-H441 | 1.03 | 0.33 | 0.575 | 0.515 | 0.679 | 0.764 | 0.582 | 0.534 | 0.412 | 0.538 | 0.575 | 0.812 | 0.747 | 0.727 | 0.267 | 0.242 | 0.232
7 | NCI-H460 | 1.46 | 1.37 | 0.941 | 1.15 | 0.574 | 0.722 | 0.452 | 0.512 | 0.078 | 0.379 | 0.334 | 0.382 | 0.516 | 0.459 | 0.0603 | 0.0665 | 0.0598
8 | NCI-H520 | 1.18 | 1.3 | 1.45 | 1.25 | 0.203 | 0.238 | 0.204 | 0.252 | 0.438 | 0.467 | 0.405 | 0.431 | 0.564 | 0.399 | 0.804 | 0.59 | 0.436
9 | NCI-H596 | 1.05 | 0.982 | 0.94 | 0.9 | 0.625 | 0.543 | 0.7 | 0.688 | 0.899 | 0.878 | 0.916 | 0.691 | 0.895 | 0.859 | 0.511 | 0.511 | 0.426
10 | NCI-H647 | 1.09 | 1.19 | 1.18 | 1.3 | 0.189 | 0.16 | 0.11 | 0.224 | 0.249 | 0.336 | 0.214 | 0.475 | 0.473 | 0.309 | 0.172 | 0.146 | 0.134
11 | NCI-H838 | 1.09 | 1.2 | 1.03 | 1.36 | 0.295 | 0.344 | 0.241 | 0.316 | 0.248 | 0.271 | 0.21 | 0.468 | 0.67 | 0.414 | 0.236 | 0.224 | 0.225
12 | NCI-H1355 | 0.984 | 1.08 | 0.827 | 0.944 | 0.831 | 0.779 | 0.468 | 0.649 | 0.325 | 0.593 | 0.421 | 0.379 | 0.467 | 0.327 | 1.08 | 1.05 | 1.06
13 | NCI-H1395 | 1.08 | 1.06 | 1.13 | 1.11 | 0.41 | 0.409 | 0.401 | 0.427 | 0.623 | 0.874 | 0.653 | 0.392 | 0.378 | 0.47 | 0.728 | 0.952 | 0.665
14 | NCI-H1437 | 1.16 | 1.15 | 0.928 | 0.879 | 0.422 | 0.411 | 0.36 | 0.271 | 0.398 | 0.417 | 0.368 | 0.318 | 0.346 | 0.349 | 0.244 | 0.309 | 0.313
15 | NCI-H1650 | 1.31 | 1.26 | 1.1 | 1.13 | 0.339 | 0.399 | 0.326 | 0.296 | – | 0.408 | 0.335 | – | 0.495 | 0.234 | 0.292 | 0.312 | 0.37
16 | NCI-H1651 | 1.04 | 1.15 | 0.95 | 1.18 | 0.307 | 0.447 | 0.43 | 0.582 | 0.537 | 0.616 | 0.623 | 0.287 | 0.318 | 0.247 | 0.457 | 0.543 | 0.57
17 | NCI-H1666 | 0.946 | 1.1 | 0.856 | 0.69 | 0.874 | 0.901 | 0.758 | 0.755 | 0.558 | 0.599 | 0.514 | 0.57 | 0.575 | 0.522 | 0.793 | 0.869 | 0.831
18 | NCI-H1734 | 1.04 | 0.935 | 0.857 | 0.76 | 0.459 | 0.497 | 0.456 | 0.447 | 0.262 | 0.278 | 0.243 | 0.382 | 0.385 | 0.353 | 0.442 | 0.435 | 0.356
